The values that follow come from patent US20080213377A1, “Delivery of Nanoparticles and/or Agents to Cells” (priority 2006, published 2008).

No end group written: not given here.

For series [1], the system named is Free MMP-2 cleavable peptide substrate NH2-G-K(TAMRA)-G-P-L-G-V-R-G-C-CONH2.
Series [2] has as its system Peptide-PEG (MMP-2 cleavable L-AA substrate coupled to 10 kDa PEG) immobilized on dextran-coated iron oxide nanoparticles.
The target of series [3] is T1, Recombinant MMP-2 (Homo sapiens, UniProt P08253).
T1 sequence (P08253 110-660): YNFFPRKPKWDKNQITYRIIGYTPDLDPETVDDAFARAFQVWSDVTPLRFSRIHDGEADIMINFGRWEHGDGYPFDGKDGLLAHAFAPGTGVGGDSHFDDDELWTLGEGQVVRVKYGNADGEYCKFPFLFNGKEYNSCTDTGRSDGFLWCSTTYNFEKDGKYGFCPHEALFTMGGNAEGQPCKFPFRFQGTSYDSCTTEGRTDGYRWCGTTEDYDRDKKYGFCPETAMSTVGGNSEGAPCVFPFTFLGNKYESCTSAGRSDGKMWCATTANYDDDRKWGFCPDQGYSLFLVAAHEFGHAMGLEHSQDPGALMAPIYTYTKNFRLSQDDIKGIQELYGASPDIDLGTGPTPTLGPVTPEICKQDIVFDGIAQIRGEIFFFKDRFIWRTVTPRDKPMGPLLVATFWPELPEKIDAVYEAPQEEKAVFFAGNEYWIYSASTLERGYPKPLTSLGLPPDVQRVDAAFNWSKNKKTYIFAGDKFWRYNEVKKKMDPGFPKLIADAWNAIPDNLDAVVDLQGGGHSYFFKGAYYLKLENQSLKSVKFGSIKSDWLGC
The series can be described thus: Protease activation of nanoparticles (TAMRA dequenching), MMP-2. The following applies: 25 μM; MMP-2 2.5 μg/ml.
Description: Activation was monitored by the release of TAMRA quenching at an excitation of 515 nm and emission of 580 nm.

In series [4] the test system is collagenase (Clostridiopeptidase A). The series can be described thus: Protease activation of nanoparticles (TAMRA dequenching), collagenase. Type of series: biochemical. As to conditions: 25 μM; collagenase 20 μg/ml.
Series [5] deals with Nucleolin on the surface of HeLa cells (UniProt P19338). The series can be described thus: cell-based or functional assay.
The test system of series [6] is Glioblastoma cells. Put plainly: Photoactivation of endosomal escape in glioblastoma cells. Type of series: cell-based. As to the method: Fluorescein labeled CAR peptide ([…]) was synthesized using an ABI Model 433A peptide synthesizer from Biopolymers Laboratory, the MIT Center for Cancer Research. The peptide was cyclized by bubbling air into an aqueous solution of the peptide at 0.1 mg/ml overnight. Complete cyclization was confirmed by mass spectrometry and HPLC analysis.
Glioblastoma cells were obtained from the laboratory of Phil Sharp (MIT). The cyclized peptide (cCAR) was incubated with cells for 2 hours at 37° C. in complete culture medium (DMEM supplemented with serum, streptomycin, penicillin and fungizone). A monolayer of the cells was then rinsed with warm media three times. Microscopy photographs were taken after overnight incubation of the cells. For activation of photosensitizer, Arc lamp light from a microscope was irradiated onto the cells for two minutes.

Series [7] concerns HeLa cells. The series can be described thus: QD internalization in HeLa cell monolayers, flow cytometry (Example 8). The following applies: free peptide 1 μM to 1 mM added with 50 nM F3-QDs. Type of series: cell-based. An excerpt:
After four hours, cells were washed with media, treated with trypsin (0.25%) and EDTA, and resuspended in 1% BSA (in PBS) for flow cytometry (BD FACSort, FL1 for EGFP signal and FL3 for QD signal). Fluorescence data on 10,000 cells were collected for each sample and the geometric mean of intensity was reported.
(In general: A flow cytometer gives signals particle by particle.)

Chain of Nucleolin on the surface of HeLa cells (P19338 2-710 limits assumed): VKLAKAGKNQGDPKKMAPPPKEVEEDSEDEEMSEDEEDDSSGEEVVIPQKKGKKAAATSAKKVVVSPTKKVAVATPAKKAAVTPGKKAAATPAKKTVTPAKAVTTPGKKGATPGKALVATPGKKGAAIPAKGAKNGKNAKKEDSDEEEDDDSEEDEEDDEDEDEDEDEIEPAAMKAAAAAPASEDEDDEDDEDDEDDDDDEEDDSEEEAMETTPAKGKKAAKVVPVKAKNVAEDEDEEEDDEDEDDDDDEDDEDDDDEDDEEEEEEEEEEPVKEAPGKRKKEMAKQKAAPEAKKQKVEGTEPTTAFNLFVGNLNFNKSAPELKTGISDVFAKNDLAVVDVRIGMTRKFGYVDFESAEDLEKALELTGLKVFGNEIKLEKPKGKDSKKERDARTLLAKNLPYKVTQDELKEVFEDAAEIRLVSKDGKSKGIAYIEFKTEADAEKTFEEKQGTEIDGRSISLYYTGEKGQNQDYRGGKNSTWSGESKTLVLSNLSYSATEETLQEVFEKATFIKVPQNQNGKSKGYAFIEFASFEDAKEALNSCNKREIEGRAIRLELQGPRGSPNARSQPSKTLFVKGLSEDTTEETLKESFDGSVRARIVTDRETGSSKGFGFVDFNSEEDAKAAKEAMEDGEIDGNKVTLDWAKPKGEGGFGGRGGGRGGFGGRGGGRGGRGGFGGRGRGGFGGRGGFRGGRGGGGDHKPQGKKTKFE

Recombinant MMP-2: in series [1], the “Kcat/Km (cleavage of the substrate by MMP-2 over time, fluorescamine assay)” value is 8.42 and 26.7 µM^-1 hr^-1 respectively. In addition, in series [2], the “Kcat/Km (cleavage of the substrate by MMP-2 over time, TAMRA dequenching)” value was 8.42 and 26.7 µM^-1 hr^-1 respectively; the “fold reduction of MMP-2 Kcat/Km against the free peptide” value was “reduces its associated MMP-2 Kcat/Km within a practical range, 3.2 fold”.

Consider `CNC(=O)[C@H](Cc1c[nH]c2ccccc12)NC(=O)[C@@H](CC(=O)NO)CC(C)C` [Galardin], for which the “inhibition of nanoparticle activation (peptide-PEG cleavage)” value in series [3] and in series [4] was “inhibits activation” throughout.

In the case of “F3-QD (F3 peptide C[Ahx]… conjugated to PEG-amino quantum dots)”, the QD uptake by HeLa cells (flow cytometry) (orders of magnitude) in series [5] turned out to be 2.

For the molecule “cyclic CAR peptide: Fluorescein labeled, cyclized CAR peptide (CARSKNKDC), binds heparan sulfate proteoglycans (also: fluorescein label, position not given here, cyclized, bond type not given here)”, the internalization into cells result in series [6] (2 hours at 37° C., without light irradiation) is recorded as “internalized”. In series [6] (Arc lamp light irradiation), the “endosomal escape upon light irradiation” value is “distributed evenly inside cells”.

On to “Lys-Ala-Arg-Glu-Cys (KAREC; printed: Lys-Ala-Arg-Glu-Cys) [KAREC peptide]”, for which the “inhibition of F3-QD uptake by free peptide” value in series [7] was “minimal”.
